Converted amounts (≈) assume the structure as drawn. The source made the active and inactive calls. The rule behind the calls is not given here.
Key:
[1] = Half-life in male ICR mouse at 2 mg/kg, iv measured after 24 hrs by LC-MS/MS analysis; format: ADME, organism-based; conditions: in vivo
[2] = Half-life in male ICR mouse at 20 mg/kg, po measured after 24 hrs by LC-MS/MS analysis; format: ADME, organism-based; conditions: in vivo
[3] = Tmax in male ICR mouse at 20 mg/kg, po measured after 24 hrs by LC-MS/MS analysis; format: ADME, organism-based; conditions: in vivo
[4] = Cmax in male ICR mouse at 20 mg/kg, po measured after 24 hrs by LC-MS/MS analysis; format: ADME, organism-based; conditions: in vivo
[5] = Oral bioavailability in male ICR mouse at 20 mg/kg measured after 24 hrs by LC-MS/MS analysis; format: ADME, organism-based; conditions: in vivo
Candida albicans [6] = assay: Antifungal activity against Candida albicans SC5314 assessed as inhibition of fungal growth incubated for 48 to 72 hrs by microplate reader analysis; format: functional, organism-based; conditions: time 48-72 hrs
Candida albicans [7] = assay: Antifungal activity against Candida albicans 9296 assessed as inhibition of fungal growth incubated for 48 to 72 hrs by microplate reader analysis; format: functional, organism-based; conditions: time 48-72 hrs
[Candida] auris = Antifungal activity against Candida auris 15448 assessed as inhibition of fungal growth incubated for 48 to 72 hrs by microplate reader analysis; format: functional, organism-based; conditions: Candidozyma auris, time 48-72 hrs
Cryptococcus neoformans [8] = assay: Antifungal activity against Cryptococcus neoformans H99 assessed as inhibition of fungal growth incubated for 48 to 72 hrs by microplate reader analysis; format: functional; conditions: time 48-72 hrs
Cryptococcus neoformans [9] = assay: Antifungal activity against Cryptococcus neoformans 011409 assessed as inhibition of fungal growth incubated for 48 to 72 hrs by microplate reader analysis; format: functional; conditions: time 48-72 hrs
Nakaseomyces glabratus [10] = assay: Antifungal activity against Candida glabrata 8535 assessed as inhibition of fungal growth incubated for 48 to 72 hrs by microplate reader analysis; format: functional; conditions: time 48-72 hrs
Nakaseomyces glabratus [11] = assay: Antifungal activity against Candida glabrata 9256 assessed as inhibition of fungal growth incubated for 48 to 72 hrs by microplate reader analysis; format: functional; conditions: time 48-72 hrs
[12] = Cytotoxicity against HUVEC cells assessed as inhibition of cell proliferation incubated for 48 hrs by WST-8 reagent based assay; format: toxicity; conditions: human
Nakaseomyces glabratus [13] = assay: Antifungal activity against Candida glabrata 0161 assessed as inhibition of fungal growth at 0.13 microg/ml incubated up to 72 hrs by microplate reader analysis relative to control; format: functional
Cryptococcus neoformans [14] = assay: Antifungal activity against Cryptococcus neoformans H99 assessed as inhibition of fungal growth at 0.031 microg/ml incubated for 72 hrs by microplate reader analysis; format: functional, organism-based; conditions: dose 0.031 µg/ml
Cryptococcus neoformans [15] = assay: Antifungal activity against Cryptococcus neoformans H99 assessed as inhibition of fungal growth at 0.13 microg/ml incubated for 72 hrs by microplate reader analysis relative to control; format: functional
Cryptococcus neoformans [16] = assay: Fungicidal activity against Cryptococcus neoformans H99 at 32 microg/ml incubated for 72 hrs by time-kill kinetics analysis; format: functional, organism-based; conditions: dose 32.0 µg/ml
Cryptococcus neoformans [17] = assay: Fungicidal activity against Cryptococcus neoformans H99 incubated for 72 hrs by time-kill kinetics analysis; format: functional
Nakaseomyces glabratus [18] = assay: Inhibition of biofilm formation in Candida glabrata 0161 at 2 to 32 microg/ml incubated for 24 hrs by XTT reagent based assay; format: functional, organism-based; conditions: dose 2-32 µg/ml
Cryptococcus neoformans [19] = assay: Inhibition of capsule formation in Cryptococcus neoformans H99 at 8 microg/ml incubated for 24 hrs by light microscopic analysis; format: functional
Cryptococcus neoformans [20] = assay: Inhibition of melanin production in Cryptococcus neoformans H99 at 0.125 microg/ml by photographic analysis relative to control; format: functional
Cryptococcus neoformans [21] = assay: Induction of morphological changes in Cryptococcus neoformans H99 assessed as cell wall damage at 4 microg/ml incubated for 8 hrs by transmission electron microscopic analysis; format: functional, organism-based; conditions: dose 4.0 µg/ml
Cryptococcus neoformans [22] = assay: Induction of morphological changes in Cryptococcus neoformans H99 assessed as cell membrane damage by measuring plasmolysis at 4 microg/ml incubated for 8 hrs by transmission electron microscopic analysis; format: functional, organism-based; conditions: dose 4.0 µg/ml
Cryptococcus neoformans [23] = assay: Induction of morphological changes in Cryptococcus neoformans H99 assessed as vacuole fragmentation at 4 microg/ml incubated for 8 hrs by transmission electron microscopic analysis; format: functional, organism-based; conditions: dose 4.0 µg/ml
Cryptococcus neoformans [24] = assay: Induction of ROS accumulation in Cryptococcus neoformans H99 assessed as increase in intracellular ROS level by measuring intense green fluorescence at 4 microg/ml incubated for 24 hrs by DCFH-DA probe based fluorescence microscopic analysis; format: functional, organism-based; conditions: dose 4.0 µg/ml
Nakaseomyces glabratus [25] = assay: Induction of oxidative damage Candida glabrata 0161 assessed as increase in MDA level incubated for 24 hrs; format: functional, organism-based
Cryptococcus neoformans [26] = assay: Upregulation of CAT1 gene expression in Cryptococcus neoformans H99 at 4 microg/ml incubated for 8 hrs by qRT-PCR analysis; format: functional; conditions: dose 4.0 µg/ml
Cryptococcus neoformans [27] = assay: Upregulation of SOD1 gene expression in Cryptococcus neoformans H99 at 4 microg/ml incubated for 8 hrs by qRT-PCR analysis; format: functional; conditions: dose 4.0 µg/ml
Cryptococcus neoformans [28] = assay: Upregulation of GPX1 gene expression in Cryptococcus neoformans H99 at 4 microg/ml incubated for 8 hrs by qRT-PCR analysis; format: functional; conditions: dose 4.0 µg/ml
Cryptococcus neoformans [29] = assay: Upregulation of TRX1 gene expression in Cryptococcus neoformans H99 at 4 microg/ml incubated for 8 hrs by qRT-PCR analysis; format: functional; conditions: dose 4.0 µg/ml
Nakaseomyces glabratus [30] = assay: Upregulation of CAT1 gene expression in Candida glabrata 0161 incubated for 8 hrs by qRT-PCR analysis; format: functional
Nakaseomyces glabratus [31] = assay: Upregulation of SOD1 gene expression in Candida glabrata 0161 incubated for 8 hrs by qRT-PCR analysis; format: functional
Nakaseomyces glabratus [32] = assay: Upregulation of TSA1 gene expression in Candida glabrata 0161 incubated for 8 hrs by qRT-PCR analysis; format: functional
Nakaseomyces glabratus [33] = assay: Upregulation of TRR1 gene expression in Candida glabrata 0161 incubated for 8 hrs by qRT-PCR analysis; format: functional
Cryptococcus neoformans [34] = assay: Antifungal activity against Cryptococcus neoformans H99 assessed as inhibition of fungal growth by measuring fold increase in MIC in presence of Fe(II) ion; format: functional
Cryptococcus neoformans [35] = assay: Antifungal activity against Cryptococcus neoformans H99 assessed as inhibition of fungal growth in presence of 1 to 10 microg/ml Fe(II) ion; format: functional, organism-based
Cryptococcus neoformans [36] = assay: Antifungal activity against Cryptococcus neoformans H99 assessed as inhibition of fungal growth in presence of 1 to 10 microg/ml Fe(III) ion; format: functional, organism-based
Nakaseomyces glabratus [37] = assay: Antifungal activity against Candida glabrata 0161 assessed as inhibition of fungal growth in presence of 10% serum containing transferrin-bound ferric iron and free iron; format: functional, organism-based
Nakaseomyces glabratus [38] = assay: (§1) Antifungal activity against Candida glabrata 0161 infected in candidiasis female ICR mouse model assessed as reduction in fungal burden in kidney at 20 mg/kg, ip pre-infected with fungi for 3 hrs followed by compound administration and measured after 5 days; format: functional; conditions: time 5 day
Cryptococcus neoformans [39] = assay: Antifungal activity against Cryptococcus neoformans H99 infected in cryptococcosis female ICR mouse model assessed as reduction in fungal burden in brain at 20 mg/kg, ip pre-infected with fungi for 3 hrs followed by compound administration and measured after 5 days; format: functional, organism-based; conditions: time 5.0 day
Nakaseomyces glabratus [40] = assay: as §1, with “tight arrangement of renal tubular epithelial cells” for “reduction in fungal burden in kidney”, “days by H and E staining based analysis” for “days”; format: functional, organism-based; conditions: time 5.0 day
Cryptococcus neoformans [41] = assay: Antifungal activity against Cryptococcus neoformans H99 infected in cryptococcosis female ICR mouse model assessed as dense arrangement of neuronal cells at 20 mg/kg, ip pre-infected with fungi for 3 hrs followed by compound administration and measured after 5 days by H and E staining based analysis; format: functional, organism-based; conditions: time 5.0 day

Nc1cc(=O)n(C(=S)Nc2ccc(C3CCCCC3)cc2)[nH]1
half-life [1]: 2.12 h
half-life [2]: 1.46 h
Tmax [3]: 0.25 h
Cmax [4]: 1720 ng/mL
bioavailability [5]: 22.6%
Activity (Candida albicans [6]): Active
Activity (Candida albicans [7]): Active
Activity ([Candida] auris): Active
MIC80 (Cryptococcus neoformans [8]): 0.38 nM (≈ 0.12 ng/mL)
MIC80 (Cryptococcus neoformans [9]): 1.2 10^-4 ug/ml
MIC80 (Nakaseomyces glabratus [10]): 1.2 10^-4 ug/ml
MIC80 (Nakaseomyces glabratus [11]): 1.2 10^-4 ug/ml
IC50 at 48 h [12]: 0.64 µg/mL (≈ 2.02 µM)
inhibition at 0.13 µg/mL (Nakaseomyces glabratus [13]): 100%
Activity (Cryptococcus neoformans [14]): Active; Significantly Better Inhibitory Effect Observed Than Fluconazole At 8.0 Microg/Ml
inhibition at 0.13 µg/mL (Cryptococcus neoformans [15]): 100%
Activity (Cryptococcus neoformans [16]): inactive
MFC (Cryptococcus neoformans [17]): 16 µg/mL (≈ 50.6 µM)
inhibition (Nakaseomyces glabratus [18]): Moderate_effect
inhibition at 8 µg/mL (Cryptococcus neoformans [19]): 100%
inhibition at 0.125 µg/mL (Cryptococcus neoformans [20]): 100%
Activity (Cryptococcus neoformans [21]): inactive
Activity (Cryptococcus neoformans [22]): Active
Activity (Cryptococcus neoformans [23]): Active
Activity (Cryptococcus neoformans [24]): Active
Activity (Nakaseomyces glabratus [25]): Active
Activity (Cryptococcus neoformans [26]): Active
Activity (Cryptococcus neoformans [27]): Active
Activity (Cryptococcus neoformans [28]): Active
Activity (Cryptococcus neoformans [29]): Active
Activity (Nakaseomyces glabratus [30]): Active
Activity (Nakaseomyces glabratus [31]): Active
Activity (Nakaseomyces glabratus [32]): Active
Activity (Nakaseomyces glabratus [33]): Active
fold change (FC) (Cryptococcus neoformans [34]): ~1000
Activity (Cryptococcus neoformans [35]): inactive
Activity (Cryptococcus neoformans [36]): inactive
Activity (Nakaseomyces glabratus [37]): inactive
Activity (Nakaseomyces glabratus [38]): 1.2 log10CFU/g
Activity (Cryptococcus neoformans [39]): Active
Activity (Nakaseomyces glabratus [40]): Active
Activity (Cryptococcus neoformans [41]): Active
